Laboratory results published in patent US11208385B2, “N-substituted imidazole carboxylate compound, preparation method and use” (priority 2017, dated 2021).
Read-outs that look alike come from different tables or passages of the source.

What was measured:
SD rats [1] = test system: SD rats
Protocol: 150 male SD rats weighing 250˜300 g were randomly divided into 15 groups, 10 rats for one group. […] Drugs were injected to rats via caudal vein, and the injection time was 15 seconds. The abolition of righting reflex for 30 s or above was used as the indicator producing anaesthetic effect.

[2] = In vitro degradation experiment in rat liver homogenate (HPLC); assay type: in vitro ADME; conditions: rat liver homogenate, 37° C., 50 μg/mL
Protocol: In Vitro Degradation Experiment of Compounds.
Chromatographic condition: mobile phase is methanol: H2O=65:35, and the water phase contains 0.06% ammonium acetate; the flow rate is 1 mL/min; the column temperature is 25° C.
Apparatus: Agilent 1100 Series. Chromatographic column: Aglent Eclipse Plus C18 column, 5 μm 4.6*[…].
The linear range is 1-50 μg/mL.
After fasting for 24 h, male SD rats were treated to collect liver, and the water on the surface of liver was removed using the filter paper, then liver was weighed. […] Then, the homogenate was centrifugated at 10000 g for 20 min at the temperature of 4° C. The supernatant solution was collected, and 14 samples (2 mL) of liver homogenate were taken out and warmed to 37° C. in water bath. Each compound (content 10 mg/mL, 10 μl) was added, respectively, to make a concentration of 50 μg/mL in liver homogenate.
[…] After centrifugation, the supernatant solution was taken out and injected. The concentration of each compound at each time point was detected, that was divided by the initial concentration of each compound, to obtain the degradation ratio of each compound.

SD rats [3] = test system: SD rats; remark: listed apart in the source
Protocol: 30 male SD rats weighing 250˜300 g were randomly divided into 6 groups, 5 rats for one group. […] Each drug was continually infused to rats via caudal vein, and made the righting reflex abolish, and the abolition of righting reflex was maintained for 1 hour. The wake time after drug withdrawal and the time of full recovery were recorded.

corticosterone = experiment: Serum corticosterone after dexamethasone suppression and ACTH stimulation in rats (ELISA); conditions: 30 min after drug withdrawal, ACTH stimulation
Protocol: Male rats (250˜300 g) were chosen as test animals, and the content of corticosterone in serum of rats was measured using ELISA kit and ELISA reader. 65 SD rats were randomly divided into 13 groups, five rats for each group. […] 30 min After administration of ACTH, the concentrations of two cortical hormones in animal body were determined.

[4] = single iv dose of 2ED50, 10 rats per group
[5] = single iv dose of 2ED50, from abolition to recovery of righting reflex
[6] = single iv dose of 2ED50, from recovery of righting reflex to free walk
[7] = after 1 h continual infusion, from recovery of righting reflex to free walk
[8] = after 1 h continual infusion, recovery time of righting reflex after discontinuance

Structure (SMILES): CCC(C)OC(=O)OCOC(=O)c1cncn1[C@H](C)c1ccccc1.Cl (some centres unmarked) [Example 10]
- Incidence rate (%) of muscle tremor (SD rats [1]; [4]): 0%
- Time of keeping anaesthesia (SD rats [1]; [5]): 2.5 ± 0.7 min
- Time of complete recovery (SD rats [1]; [6]): 2.0 ± 0.9 min

Structure (SMILES): CCC(OC(=O)OC(C)C)OC(=O)c1cncn1[C@H](C)c1ccccc1 (some centres unmarked) [Example 28]
- Incidence rate (%) of muscle tremor (SD rats [1]; [4]): 0%
- Time of keeping anaesthesia (SD rats [1]; [5]): 3.5 ± 1.1 min
- Time of complete recovery (SD rats [1]; [6]): 2.1 ± 0.5 min
- Residual rate at 5 min (%) [2]: 5.3%
- Residual rate at 10 min (%) [2]: 0%
- Residual rate at 20 min (%) [2]: 0%
- Time of complete recovery (SD rats [3]; [7]): 22.5 ± 4.8 min
- Wake time after drug withdrawal (SD rats [3]; [8]): 10.1 ± 2.3 min
- Incidence rate (%) of muscle tremor (SD rats [3]; continual infusion for 1 h): 0%

Structure (SMILES): CCOC(=O)OCOC(=O)c1cncn1[C@H](C)c1ccccc1 [Example 2]
- Incidence rate (%) of muscle tremor (SD rats [1]; [4]): 0%
- Time of keeping anaesthesia (SD rats [1]; [5]): 1 ± 0.5 min
- Time of complete recovery (SD rats [1]; [6]): 2.5 ± 0.4 min
- Residual rate at 5 min (%) [2]: 0%
- Residual rate at 10 min (%) [2]: 0%
- Residual rate at 20 min (%) [2]: 0%
- Time of complete recovery (SD rats [3]; [7]): 3.1 ± 1.8 min
- Wake time after drug withdrawal (SD rats [3]; [8]): 3.1 ± 1.2 min
- Incidence rate (%) of muscle tremor (SD rats [3]; continual infusion for 1 h): 0%

Structure (SMILES): CC(C)COC(=O)OCOC(=O)c1cncn1[C@H](C)c1ccccc1 [Example 5]
- Incidence rate (%) of muscle tremor (SD rats [1]; [4]): 10%
- Time of keeping anaesthesia (SD rats [1]; [5]): 3 ± 1.1 min
- Time of complete recovery (SD rats [1]; [6]): 3.3 ± 2.1 min
- Residual rate at 5 min (%) [2]: 0%
- Residual rate at 10 min (%) [2]: 0%
- Residual rate at 20 min (%) [2]: 0%
- Time of complete recovery (SD rats [3]; [7]): 3.9 ± 2.6 min
- Wake time after drug withdrawal (SD rats [3]; [8]): 6.2 ± 1.2 min
- Incidence rate (%) of muscle tremor (SD rats [3]; continual infusion for 1 h): 10%

Structure (SMILES): C[C@H](c1ccccc1)n1cncc1C(=O)OCOC(=O)OC(C(F)(F)F)C(F)(F)F [Example 9]
- Incidence rate (%) of muscle tremor (SD rats [1]; [4]): 0%
- Time of keeping anaesthesia (SD rats [1]; [5]): 8.1 ± 2.3 min
- Time of complete recovery (SD rats [1]; [6]): 7.2 ± 2.9 min
- Residual rate at 5 min (%) [2]: 72.1%
- Residual rate at 10 min (%) [2]: 50.3%
- Residual rate at 20 min (%) [2]: 39.8%
- Time of complete recovery (SD rats [3]; [7]): 55 ± 38 min
- Wake time after drug withdrawal (SD rats [3]; [8]): 20 ± 14 min
- Incidence rate (%) of muscle tremor (SD rats [3]; continual infusion for 1 h): 0%

Structure (SMILES): C[C@H](c1ccccc1)n1cncc1C(=O)OCOC(=O)OC(C)(C)C [Example 4]
- Incidence rate (%) of muscle tremor (SD rats [1]; [4]): 0%
- Time of keeping anaesthesia (SD rats [1]; [5]): 8.3 ± 1.4 min
- Time of complete recovery (SD rats [1]; [6]): 6.1 ± 1.6 min
- Residual rate at 5 min (%) [2]: 89.3%
- Residual rate at 10 min (%) [2]: 60.1%
- Residual rate at 20 min (%) [2]: 43.6%
- Time of complete recovery (SD rats [3]; [7]): 90 ± 37 min
- Wake time after drug withdrawal (SD rats [3]; [8]): 25 ± 24 min
- Incidence rate (%) of muscle tremor (SD rats [3]; continual infusion for 1 h): 20%

Structure (SMILES): CC(C)OC(=O)OCOC(=O)c1cncn1[C@H](C)c1ccccc1 [Example 12]
- Incidence rate (%) of muscle tremor (SD rats [1]; [4]): 0%
- Time of keeping anaesthesia (SD rats [1]; [5]): 2.2 ± 0.5 min
- Time of complete recovery (SD rats [1]; [6]): 1.2 ± 0.6 min

Structure (SMILES): CCC(C)OC(=O)OCOC(=O)c1cncn1[C@H](C)c1ccccc1 (some centres unmarked) [Example 6]
- Incidence rate (%) of muscle tremor (SD rats [1]; [4]): 0%
- Time of keeping anaesthesia (SD rats [1]; [5]): 2.4 ± 0.6 min
- Time of complete recovery (SD rats [1]; [6]): 1.7 ± 0.4 min
- Residual rate at 5 min (%) [2]: 4.7%
- Residual rate at 10 min (%) [2]: 0.9%
- Residual rate at 20 min (%) [2]: 0%
- Time of complete recovery (SD rats [3]; [7]): 2.1 ± 1.5 min
- Wake time after drug withdrawal (SD rats [3]; [8]): 3.1 ± 1.9 min
- Incidence rate (%) of muscle tremor (SD rats [3]; continual infusion for 1 h): 0%

Structure (SMILES): CC(C)OC(=O)OCOC(=O)c1cncn1[C@H](C)c1ccccc1 [Example 3]
- Incidence rate (%) of muscle tremor (SD rats [1]; [4]): 0%
- Time of keeping anaesthesia (SD rats [1]; [5]): 2.1 ± 0.3 min
- Time of complete recovery (SD rats [1]; [6]): 1.3 ± 0.5 min
- Residual rate at 5 min (%) [2]: 0%
- Residual rate at 10 min (%) [2]: 0%
- Residual rate at 20 min (%) [2]: 0%
- Time of complete recovery (SD rats [3]; [7]): 1.9 ± 0.9 min
- Wake time after drug withdrawal (SD rats [3]; [8]): 3.4 ± 1.1 min
- Incidence rate (%) of muscle tremor (SD rats [3]; continual infusion for 1 h): 0%

Structure (SMILES): COC(=O)C1(OC(=O)c2cncn2[C@H](C)c2ccccc2)CC1 [CPMM, reference compound]
- Incidence rate (%) of muscle tremor (SD rats [1]; male, SD, rat, in vivo, iv): 80%
- Onset of anaesthesia (SD rats [1]; rat, in vivo): immediately anesthetize the rats
- Time of complete recovery (SD rats [1]; rat, in vivo, iv): 2.3 ± 2.1 min
- Time of keeping anaesthesia (SD rats [1]; rat, in vivo, iv): 2.5 ± 1.3 min
- Residual rate at 5 min (%) [2]: 0%
- Residual rate at 10 min (%) [2]: 0%
- Residual rate at 20 min (%) [2]: 0%
- Incidence rate (%) of muscle tremor (SD rats [3]; male, SD, rat, in vivo): 90%
- Time of complete recovery (SD rats [3]; rat, in vivo): 25 ± 9 min
- Wake time after drug withdrawal (SD rats [3]; rat, in vivo): 12 ± 7 min

Structure (SMILES): CC(C)OC(=O)OC(C)OC(=O)c1cncn1[C@H](C)c1ccccc1 (some centres unmarked) [Example 8]
- Incidence rate (%) of muscle tremor (SD rats [1]; [4]): 10%
- Time of keeping anaesthesia (SD rats [1]; [5]): 2.3 ± 0.3 min
- Time of complete recovery (SD rats [1]; [6]): 1.9 ± 1^ min
- Residual rate at 5 min (%) [2]: 2.1%
- Residual rate at 10 min (%) [2]: 0%
- Residual rate at 20 min (%) [2]: 0%
- Time of complete recovery (SD rats [3]; [7]): 1.8 ± 0.6 min
- Wake time after drug withdrawal (SD rats [3]; [8]): 4.9 ± 2.7 min
- Incidence rate (%) of muscle tremor (SD rats [3]; continual infusion for 1 h): 10%

Structure (SMILES): COC(=O)OCOC(=O)c1cncn1[C@H](C)c1ccccc1 [Example 1]
- Incidence rate (%) of muscle tremor (SD rats [1]; [4]): 0%
- Time of keeping anaesthesia (SD rats [1]; [5]): 1.5 ± 0.6 min
- Time of complete recovery (SD rats [1]; [6]): 1.4 ± 0.5 min
- Residual rate at 5 min (%) [2]: 0%
- Residual rate at 10 min (%) [2]: 0%
- Residual rate at 20 min (%) [2]: 0%
- Time of complete recovery (SD rats [3]; [7]): 4.1 ± 1.1 min
- Wake time after drug withdrawal (SD rats [3]; [8]): 2.1 ± 1.1 min
- Incidence rate (%) of muscle tremor (SD rats [3]; continual infusion for 1 h): 0%

Structure (SMILES): COC(=O)CCOC(=O)c1cncn1[C@H](C)c1ccccc1 [MOC-ET, reference compound]
- Cortex function of test animals after drug withdrawal (corticosterone): obviously recovered
- Residual rate at 5 min (%) [2]: 0%
- Residual rate at 10 min (%) [2]: 0%
- Residual rate at 20 min (%) [2]: 0%

Structure (SMILES): CC[C@H](C)OC(=O)OCOC(=O)c1cncn1[C@H](C)c1ccccc1 [Example 17]
- Incidence rate (%) of muscle tremor (SD rats [1]; [4]): 0%
- Time of keeping anaesthesia (SD rats [1]; [5]): 2.2 ± 0.3 min
- Time of complete recovery (SD rats [1]; [6]): 1.6 ± 0.2 min
- Residual rate at 5 min (%) [2]: 3.1%
- Residual rate at 10 min (%) [2]: 0%
- Residual rate at 20 min (%) [2]: 0%

Structure (SMILES): CCC(C)OC(=O)OCOC(=O)c1cncn1[C@H](C)c1ccccc1 (some centres unmarked) [Example 11]
- Incidence rate (%) of muscle tremor (SD rats [1]; [4]): 0%
- Time of keeping anaesthesia (SD rats [1]; [5]): 2.8 ± 1.1 min
- Time of complete recovery (SD rats [1]; [6]): 2.1 ± 1.2 min

Structure (SMILES): CC[C@@H](C)OC(=O)OCOC(=O)c1cncn1[C@H](C)c1ccccc1 [Example 16]
- Incidence rate (%) of muscle tremor (SD rats [1]; [4]): 0%
- Time of keeping anaesthesia (SD rats [1]; [5]): 3.1 ± 0.4 min
- Time of complete recovery (SD rats [1]; [6]): 2.1 ± 0.5 min
- Residual rate at 5 min (%) [2]: 3.2%
- Residual rate at 10 min (%) [2]: 0%
- Residual rate at 20 min (%) [2]: 0%
- Time of complete recovery (SD rats [3]; [7]): 2.1 ± 0.5 min
- Wake time after drug withdrawal (SD rats [3]; [8]): 4.5 ± 2.2 min
- Incidence rate (%) of muscle tremor (SD rats [3]; continual infusion for 1 h): 0%
